Test results published in US11701376B2, “Nutritional compositions comprising human milk oligosaccharides and nucleotides and uses thereof for treating and/or preventing enteric viral infection” (priority 2010, dated 2023).

Experiments:
[1] = system: monocyte-derived cytokines; experiment: Monocyte-derived cytokines in peripheral blood mononuclear cells with or without RSV (Example 49); format: cell-based, Human
Procedure: (§1) Specifically, either 3′SL or 6′SL is added, at concentrations of 0.1 mg/mL, 0.2 mg/mL, or 0.5 mg/mL to fresh peripheral blood mononuclear cells and incubated at 37° C. in 5% CO2 to pretreat the cells for approximately 24 hours. LNnT is added, at concentrations of 0.1 mg/mL, 0.2 mg/mL, or 1 mg/mL to fresh peripheral blood mononuclear cells and incubated at 37° C. in 5% CO2 to pretreat the cells for approximately 24 hours. Lactose is included as a carbohydrate control. Matched endotoxin unit concentration controls are included to allow differentiation of ingredient effects from inherent low levels of endotoxin. Some variables are then incubated with RSV at a multiplicity of infection (MOI) of 0.1 for approximately 1 hour at 37° C. in 5% in CO2. Uninfected control variables are incubated with medium for approximately 1 hour at 37° C. in 5% CO2. Supernatants are collected at 24 and 48 hours post-infection.
(§2) Cytokines are measured in supernatants for each variable at 24 and 48 hours to assess the effects of HMOs on the early immune response to RSV. Cytokines are measured using custom Bio-Plex Human cytokine kits from Bio-Rad. Results for interferon-inducible protein 10 (IP-10, also known as CXCL 10) are shown in FIGS. 3 and 4 for 3′SL and 6′SL, and in FIGS. 5 and 6 for LNnT. IP-10 is a CXC chemokine that attracts, binds to and activates the CXCR3 receptor on natural killer cells and memory T cells. IP-10 is expressed by monocytes and a number of other cells, and is induced by interferon. A positive correlation exists between RSV clinical disease severity in children (as measured by: length of hospital stay, fever, and number of days supplemental O2 is required) and serum IP-10. Therefore, a decrease in IP-10 signals a decrease in severity of RSV disease experienced.

[2] = system: interferon-inducible protein 10 (IP-10); experiment: IP-10 in supernatants of RSV-infected peripheral blood mononuclear cells (Example 49); format: cell-based, Human; conditions: for IP-10 in virus-infected variables, both donors: RSV MOI 0.1, 0.1-0.5 mg/mL (LNnT 0.1-1 mg/mL); for IP-10 level relative to uninfected controls: RSV-infected PBMC; for dampening virus-induced inflammation as measured by a decrease in IP-10, comparison: compared with 3′SL; for reducing inflammation caused by RSV: pretreatment for 24 hours
Procedure: as §1, §2

rotavirus = experiment: NSP4 mRNA expression in rotavirus-treated ileal loops of piglets (Example 50); format: in vivo; conditions: HMO about 2 mg/mL plus rotavirus, 6 hours, vs RV and media
Procedure: Specifically, HMO and nucleotide treatment within the ileal lumen of both healthy and acutely rotavirus-infected piglets is analyzed.
Two groups of piglets (both n=9) are fed from age 48 hours to age 21 days either a low nucleotide formula comprising about 72 mg/L of a nucleotide mixture or a high nucleotide formula comprising about 320 mg/L of a nucleotide mixture.
At day 21, a midline laparotomy is performed and six loops of ilium are isolated in situ. Each loop is about 10 cm long and is followed by an inter-loop segment of about 2 cm. […]
The following treatments are injected into the loops: media; LNnT; an acidic HMO mixture comprising about 40 wt % 6′SL, about 10 wt % 3′SL, and about 50 wt % sialic acid; media and rotavirus; LNnT and rotavirus; and the acidic HMO mixture comprising about 40 wt % 6′SL, about 10 wt % 3′SL, and about 50 wt % sialic acid and rotavirus. […] Each loop is treated for 6 hours, and post-treatment reverse transcriptase products from ilium mucosal cells are analyzed by quantitative real-time PCR in TaqMan gene expression assays of the target genes NSP4, IL-8, and TNF-α. […] The expression levels of genes of interest are standardized to RPL19 mRNA and expressed as fold differences which correspond to a ratio to the mean value for the control group.

interleukin 10 (IL-10) = experiment: IL-10 in supernatants of peripheral blood mononuclear cells with or without RSV (Example 49); format: cell-based, Human; conditions: in the presence or absence of RSV
Procedure: as §1
Cytokines are measured in supernatants for each variable at 24 and 48 hours to assess the effects of HMOs on the early immune response to RSV. Cytokines are measured using custom Bio-Plex Human cytokine kits from Bio-Rad. […] A positive correlation exists between RSV clinical disease severity in children (as measured by: length of hospital stay, fever, and number of days supplemental O2 is required) and serum IP-10. […]

H1N1 influenza virus [3] = format: cell-based; conditions: for IC50 (mg HMO/mL) H1N1 Influenza: co-incubation of virus with HMO at 1 or 10 mg/mL
[4] = system: respiratory syncytial virus (RSV); experiment: In vitro inhibition of viral infectivity, RSV (Example 46); format: cell-based; conditions: co-incubation of virus with HMO at 1 or 10 mg/mL
Procedure: In this Example, the effect of purified human milk oligosaccharides (HMO) on in vitro inhibition of viral infectivity is analyzed.
Samples are prepared by co-incubation of a uniform virus dose of from about 500 units/mL to about 1,000 units/mL of one of three respiratory viruses: (1) respiratory syncytial virus (RSV); (2) human parainfluenza virus (HPIV3); or (3) H1N1 influenza virus with one of the following HMOs: (1) 3′-sialyllactose (3′SL); (2) 6′-sialyllactose (6′SL); (3) 3′-fucosyllactose (3′FL); (4) 2′-fucosyllactose (2′FL); (5) lacto-N-neotetraose (LNnT); or (6) sialic acid (SA). The HMOs are added at concentrations of either 1 mg/mL or 10 mg/mL.

[5] = system: human parainfluenza virus (HPIV3); format: cell-based; conditions: co-incubation of virus with HMO at 1 or 10 mg/mL
H1N1 influenza virus [6] = format: cell-based; conditions: HMO at 10 mg/mL, MDCK cells, FIG. 1
[7] = in the presence or absence of the virus

SMILES	immunomodulation, production of monocyte-derived cytokines [1, 7]	IP-10 in virus-infected variables, both donors ([2]; 24 hours pretreatment)	IP-10 level relative to uninfected controls [2]	dampening virus-induced inflammation as measured by a decrease in IP-10, comparison [2]	reducing inflammation caused by RSV [2]	NSP4 expression (rotavirus; high nucleotide formula fed group (about 320 mg/L))	NSP4 expression (rotavirus; low nucleotide formula fed group (about 72 mg/L))	IL-10 concentration (interleukin 10 (IL-10))	IC50 (mg HMO/mL) H1N1 Influenza (H1N1 influenza virus [3]) [mg HMO/mL]	IC50 (mg HMO/mL) RSV [4] [mg HMO/mL]	RSV-induced IP-10, Donor B ([2]; Donor B, 24 hours pretreatment, RSV MOI 0.1)	RSV-induced IP-10, Donor E ([2]; Donor E, 24 hours pretreatment, RSV MOI 0.1)	anti-viral activity, H1N1 influenza virus (H1N1 influenza virus [3]; HMO at 1 mg/mL)	IC50 (mg HMO/mL) HPIV3 [5] [mg HMO/mL]	immunomodulation, production of monocyte-derived cytokines ([1]; in the absence of the virus)	inhibition of virus infectivity (H1N1 influenza virus [6])
CC(=O)N[C@H]1[C@H](O[C@H]2[C@@H](O)[C@@H](CO)O[C@@H](O[C@H]3[C@H](O)[C@@H](O)C(O)O[C@@H]3CO)[C@@H]2O)O[C@H](CO)[C@@H](O[C@@H]2O[C@H](CO)[C@H](O)[C@H](O)[C@H]2O)[C@@H]1O (mixture of isomers) [LNnT, lacto-N-neotetraose]	immunomodulatory	clearly downregulates IP-10	reduce IP-10 to levels found in uninfected controls	more effective than 3′SL	effective in reducing inflammation caused by RSV	reduced NSP4 expression	reduced NSP4 expression	increases IL-10 concentration in a dose-dependent manner	>10	>10	–	–	–	–	–	–
CC(=O)N[C@H]1[C@H]([C@H](O)[C@H](O)CO)O[C@@](O[C@H]2[C@@H](O)[C@@H](CO)O[C@@H](O[C@H]3[C@H](O)[C@@H](O)C(O)O[C@@H]3CO)[C@@H]2O)(C(=O)O)C[C@@H]1O (some centres unmarked) [3′SL, 3′-sialyllactose]	immunomodulatory	dampen RSV-induced IP-10	–	–	effective in reducing inflammation caused by RSV	–	–	–	~5	>10	not effective	downregulates RSV-induced IP-10	inhibited	>10	–	–
CC(=O)N[C@H]1[C@H]([C@H](O)[C@H](O)CO)O[C@@](OC[C@H]2O[C@@H](O[C@H]3[C@H](O)[C@@H](O)[C@H](O)O[C@@H]3CO)[C@H](O)[C@@H](O)[C@H]2O)(C(=O)O)C[C@@H]1O [6′SL, 6′-sialyllactose]	–	clearly downregulates IP-10	reduce IP-10 to levels found in uninfected controls	more effective than 3′SL	effective in reducing inflammation caused by RSV	–	–	increases interleukin 10 (IL-10) concentration in a dose-dependent manner	~10	>10	–	–	–	>10	immunomodulatory	approximately 60%
